“Also recorded” adds a separate entry of the source.
Experiments:
[1] = test system: panel of 97 kinases; assay: Selectivity profiling, scanEDGE kinase panel (KINOMEscan); type: binding; conditions: 100 nM, cut-off <35% ctrl; for # Hits: N = 92 non-mutant kinases; for Selectivity Score: inhibited kinases/tested kinases
Experimental: Selectivity profiling was done over a panel of 97 kinases at 100 nM concentration (scanEDGE assay panel from Discover X, which also uses the KINOMEscan technology, whereat KIT(D816V) and KIT (V559D, T6701) were replaced by TrkB and TrkC). […] The employed profiling panel consisted of the following kinases: ABL1(T3151)-phosphorylated, ABL1-nonphosphorylated, ABL1-phosphorylated, ACVR1B, ADCK3, AKT1, AKT2, ALK, AURKA, AURKB, AXL, BMPR2, BRAF, BRAF (V600E), BTK, CDK11, CDK2, CDK3, CDK7, CDK9, CHEK1, CSF1R, CSNK1D, CSNK1G2, DCAMKL1, DYRK1B, EGFR, EGFR (L858R), EPHA2, ERBB2, ERBB4, ERK1, FAK, FGFR2, FGFR3, FLT3, GSK3B, IGF1R, IKK-alpha, IKK-beta, INSR, JAK2 (JH1domain-catalytic), JAK3 (JH1domain-catalytic), JNK1, JNK2, JNK3, KIT, LKB1, MAP3K4, MAPKAPK2, MARK3, MEK1, MEK2, MET, MKNK1, MKNK2, MLK1, p38-alpha, p38-beta, PAK1, PAK2, PAK4, PCTK1, PDGFRA, PDGFRB, PDPK1, PIK3C2B, PIK3CA, PIK3CG, PIM1, PIM2, PIM3, PKAC-alpha, PLK1, PLK3, PLK4, PRKCE, RAF1, RET, RIOK2, ROCK2, RSK2 (Kin. Dom. 1-N-terminal), SNARK, SRC, SRPK3, TGFBR1, TIE2, TRKA, TRKB, TRKC, TSSK1B, TYK2 (JH1domain-catalytic), ULK2, VEGFR2, YANK3, ZAP70

[2] = biological target: T1, TrkA (Homo sapiens, UniProt P04629); assay: KINOMEscan primary screen against TrkA; type: binding; conditions: % of control; for % Ctrl. TrkA @10 nM: 10 nM compound; for % Ctrl. TrkA @100 nM: 100 nM compound
Experimental: (§1) Compounds were initially tested in a primary screen against TrkA (at 10 and 100 nM) and AurA (at 100 nM and 1 μM) using the KINOMEscan technology from DiscoverX Corporation, Fremont, Calif., USA (https://www.discoverx.com/services/drug-discovery-development-services/kinase-profiling/kinomescan).
Results were reported as % of control (% Ctrl.=(test compound signal−positive control signal)/(DMSO signal−positive control signal). KINOMEscan is an active site-directed competition binding assay that quantitatively measures the ability of a compound to compete with an immobilized, active-site directed ligand.

[3] = biological target: T2, AurA (Homo sapiens, UniProt O14965); assay: KINOMEscan primary screen against AurA; type: binding; conditions: % of control; for % Ctrl. AurA @100 nM: 100 nM compound; for % Ctrl. AurA @1 μM: 1 μM compound
T2 sequence (O14965 1-403): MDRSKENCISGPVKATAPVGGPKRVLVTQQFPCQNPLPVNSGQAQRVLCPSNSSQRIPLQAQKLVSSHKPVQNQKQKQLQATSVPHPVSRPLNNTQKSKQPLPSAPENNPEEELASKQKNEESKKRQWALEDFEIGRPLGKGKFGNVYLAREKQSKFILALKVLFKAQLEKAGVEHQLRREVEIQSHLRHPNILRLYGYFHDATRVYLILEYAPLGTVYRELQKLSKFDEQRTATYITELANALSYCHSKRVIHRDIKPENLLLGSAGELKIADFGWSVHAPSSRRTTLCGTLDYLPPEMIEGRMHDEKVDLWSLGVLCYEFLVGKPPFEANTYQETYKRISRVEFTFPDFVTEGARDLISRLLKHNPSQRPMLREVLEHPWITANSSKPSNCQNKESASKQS
Experimental: as §1

[4] = biological target: T2, AurA; assay: KdELECT Kd measurement (KINOMEscan), AurA; type: binding; conditions: for Kd: duplicate 11-point dose-response curves
Experimental: (§2) Kd measurements were done via the KdELECT product service from DiscoverX Corporation (Freemont, Calif., USA) which also employs the KINOMEscan technology. Here, inhibitor binding constants (Kd values) are calculated from duplicate 11-point dose-response curves.

[5] = biological target: T1, TrkA; assay: KdELECT Kd measurement (KINOMEscan), TrkA; type: binding; conditions: for Kd: duplicate 11-point dose-response curves
Experimental: as §2

[6] = biological target: TrkA; assay: KdELECT Kd measurement (KINOMEscan), TrkA; type: binding; conditions: for ΔpKd: TrkA pKd versus AurA pKd
Experimental: as §2

[7] = biological target: full-length human TrkA receptor (Homo sapiens, UniProt P04629); assay: PathHunter cellular functional assay, antagonism of β-NGF; type: cell-based; conditions: antagonism at EC80 (0.03 μg/ml) of β-NGF; read-out: Cellular assay [RC50]
From the text: The two compounds a1 and b7 were additionally tested in a functional assay using the PathHunter® technology (DiscoverX Corporation, Freemont, Calif., USA; https://www.discoverx.com/technologies-platforms/enzyme-fragment-complementation-technoloqy/cell-based-efc-assays/protein-protein-interactions/kinases-cell-based-(rtk-ctk)). In this assay, the full-length human TrkA receptor (i.e. including ligand-binding and kinase domains) is expressed as a C-terminal (intracellular) fusion with a small peptide epitope, called Prolink™ (PK). Furthermore, a SH2 domain containing protein (i.e. Shc1) is co-expressed with a larger Enzyme Acceptor (EA) fragment. Activation of the TrkA receptor by adding the agonist ligand (β-NGF), leads to the auto-phosphorylation of the kinase and subsequent binding of the Shc1-EA protein. That recruitment results in an active B-galactosidase enzyme that is detected by addition of a chemiluminescent substrate.
Compounds were tested for antagonism using EC80 concentration (i.e. 0.03 μg/ml) of β-NGF. Data was normalized to the maximal and minimal response observed in the presence of EC80 agonist ligand (3-NGF) and vehicle (DMSO, final concentration 1%), respectively.

T1 sequence (P04629 33-796): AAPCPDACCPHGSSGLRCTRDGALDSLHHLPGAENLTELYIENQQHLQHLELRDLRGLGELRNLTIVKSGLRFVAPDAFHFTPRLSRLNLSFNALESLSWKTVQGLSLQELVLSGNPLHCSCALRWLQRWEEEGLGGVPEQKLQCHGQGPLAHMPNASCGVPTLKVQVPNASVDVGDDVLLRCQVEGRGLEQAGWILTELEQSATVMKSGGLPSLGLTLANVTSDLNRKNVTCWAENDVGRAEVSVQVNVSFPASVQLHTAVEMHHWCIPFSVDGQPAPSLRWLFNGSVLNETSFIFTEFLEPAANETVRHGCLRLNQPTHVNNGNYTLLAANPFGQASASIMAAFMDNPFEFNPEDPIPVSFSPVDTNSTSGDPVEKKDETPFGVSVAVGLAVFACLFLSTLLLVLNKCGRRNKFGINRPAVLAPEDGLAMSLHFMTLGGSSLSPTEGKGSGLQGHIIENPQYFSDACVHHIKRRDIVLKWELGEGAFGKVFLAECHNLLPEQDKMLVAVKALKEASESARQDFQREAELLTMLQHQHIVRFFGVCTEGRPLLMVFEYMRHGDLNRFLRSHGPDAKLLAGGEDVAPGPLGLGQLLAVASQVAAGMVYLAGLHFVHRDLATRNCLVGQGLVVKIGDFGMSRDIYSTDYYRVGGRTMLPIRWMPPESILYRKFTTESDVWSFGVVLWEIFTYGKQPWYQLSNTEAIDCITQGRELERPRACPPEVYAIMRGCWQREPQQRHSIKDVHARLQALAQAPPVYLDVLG
full-length human TrkA receptor, sequence (P04629 33-796): as above
full-length human TrkA receptor, sequence (P01138 122-241 partner): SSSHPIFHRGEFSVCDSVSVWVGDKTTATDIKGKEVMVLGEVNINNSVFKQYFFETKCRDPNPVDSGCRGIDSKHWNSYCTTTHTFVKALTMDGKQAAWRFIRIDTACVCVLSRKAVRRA

Row | SMILES | # Hits [1] | List of inhibited kinases [1] | % Ctrl. TrkA @10 nM [2] [% Ctrl.] | % Ctrl. TrkA @100 nM [2] [% Ctrl.] | Selectivity Score [1] | % Ctrl. AurA @100 nM [3] [% Ctrl.] | % Ctrl. AurA @1 μM [3] [% Ctrl.] | AurA [pKd] [4] | Kd [4] [nM] | TrkA [pKd] [5] | Kd [5] [nM] | ΔpKd [6] | ΔΔpKd (selectivity towards AurA compared to tozasertib) ([6]; compared to tozasertib) | IC50 [7] [nM]
1 | Cc1cc(Nc2cc(N3CCN(C)CC3)nc(Sc3ccc(NC(=O)C4CC4)cc3)n2)n[nH]1 [Tozasertib, N-[4-({4-[(5-methyl-1H-pyrazol-3-yl)amino]-6-(4-methylpiperazin-1-yl)pyrimidin-2-yl}sulfanyl)phenyl]cyclopropanecarboxamide, reference compound] | 10 | TrkA, ABL1, AurA, AurB, AXL,; also recorded: CK1d, FLT3, JAK2, PLK4, RET | 31 | 5.2 | – | – | – | – | – | – | – | – | – | –
2 | Cc1ccc(CSc2nc(Nc3cc(C)[nH]n3)cc(N3CCN(C)CC3)n2)cc1 [b8, N-(5-methyl-1H-pyrazol-3-yl)-2-{[(4-methylphenyl)methyl]sulfanyl}-6-(4-methylpiperazin-1-yl)pyrimidin-4-amine] | 17 | TrkA, TrkB, TrkC, ABL1, AurA, and AXL, BTK, FGFR3, FLT3, JAK2, and JAK3, KDR, KIT, PLK4, RET, SRC, and TYK2 | 35 | 5.3 | 0.185 | 30 | 1.3 | 7.3 | 53 | 8.4 | 3.8 | 1.1 | – | –
3 | CN1CCN(c2cc(Nc3cc(C4CCCC4)[nH]n3)nc(Sc3ccccc3)n2)CC1 [a4, N-(5-cyclopentyl-1H-pyrazol-3-yl)-6-(4-methylpiperazin-1-yl)-2-(phenylsulfanyl)pyrimidin-4-amine] | 19 | TrkA, TrkB, TrkC, ABL1, AurA,; also recorded: AXL, FGFR2, FGFR3, FLT3, FMS,; also recorded: INSR, JAK2, JAK3, KIT, MAP2K2,; also recorded: MET, PDGFRb, RET, SRC | 15 | 0.95 | 0.207 | 49 | 4.5 | 7.0 | 93 | 8.8 | 1.5 | 1.8 | – | –
4 | Cc1cc(Nc2cc(N3CCN(C)CC3)nc(Sc3ccccc3)n2)n[nH]1 [Reference 2, N-(5-methyl-1H-pyrazol-3-yl)-6-(4-methylpiperazin-1-yl)-2-(phenylsulfanyl)-pyrimidin-4-amine, reference compound] | – | – | 58 | 10 | – | 15 | 0.95 | 7.4 | 41 | 7.5 | 30 | 0.1 | 1 | –
5 | Cc1cc(Nc2cc(N3CCN(C)CC3)nc(SCc3ccc(F)cc3)n2)n[nH]1 [b7, 2-{[(4-fluorophenyl)methyl]sulfanyl}-N-(5-methyl-1H-pyrazol-3-yl)-6-(4-methylpiperazin-1-yl)pyrimidin-4-amine] | 18 | TrkA, TrkB, TrkC, ABL1, ALK,; also recorded: AurA, FLT3, FMS, JAK2, JAK3,; also recorded: KDR, KIT, NuaK2, PDGFRb, PLK4,; also recorded: RET, SRC, TYK2 | 9.3 | 0.5 | 0.196 | 15 | 0.85 | 7.6 | 28 | 9.0 | 1.1 | 1.4 | – | 23

From patent publication US20200399250A1, “Pyrimidine Derivatives as Tropomyosin Receptor Kinase A (TRKA) Inhibitors” (BIOMED X GMBH, priority 2017, published 2020)
